Marks after values point to notes of the source that are not given here.
Columns and labels:
Type in all cases: biochemical
[1] = Kinetics of transition metal oxidation of NADH (decrease in absorption at 340 nm)
Description: The rate of oxidation of NADH is followed over time as the decrease in the absorption at 340 nm.
The procedure in Example 43 is repeated replacing vanadyl sulfate with potassium ferricyanide.
The procedure in Example 43 is repeated replacing vanadyl sulfate with sodium molybdate.
The procedure in Example 43 is repeated replacing vanadyl sulfate with sodium phosphotungstate.

[2] = target: T1, Alcohol Dehydrogenase (from Equine liver) (Equus caballus, UniProt P00327); test: DNP test for acetaldehyde formation: ethanol oxidation by NAD+ with Alcohol Dehydrogenase, with or without additive
T1 construct: Alcohol Dehydrogenase (from Equine liver); from tissue; host or cells: equine liver
Description: (§1) The reagent quenches any oxidative reaction of alcohol as well as detects the formation of acetaldehyde. An orange, crystalline precipitate indicates a positive reaction.
(§2) The DNP reagent is a fresh solution of 0.5 gm. of 2.4-dinitrophenylhydrazine in 20 mL methanol and 5 mL concentrated sulfuric acid, diluted to 50 mL of deionized distilled water.
To a 0.05M solution of ethanol in a 1M (pH 9.25) phosphate buffer (10 μL) are added 10 μL each of a solution 0.08M in NAD^+ (in deionized distilled water) and 4 U/mL Alcohol Dehydrogenase (from Equine liver) in the above buffer, and diluted to 100 μL with buffer. At the end of a specified time, it was quenched with the DNP reagent.
The procedure in Example 1 was repeated with the addition of 10 μL of a 0.01M vanadyl sulfate solution in deionized distilled water.
The procedure-in Example 2 is repeated using a pH 7.25 1M phosphate buffer.
The procedure in Example 3 is repeated using a pH 7.25 1M phosphate buffer.

ADH = ADH (Equus caballus, UniProt P00327); test: Rate of ADH catalyzed NAD+ oxidation of ethanol (rise in absorption at 340 nm) with additives; settings: pH 9.25
Description: In Examples 51-53, the rate of ADH catalyzed NAD^+ oxidation of alcohol is followed by the rise in absorption at 340 nm, with and without additives. When a solvent (methanol) is needed to dissolve the additive, an equal amount is added to the “blank” or “control”. The results, as summarized in Table 3, indicate the effectiveness of Daidezin, Aloin and Methoxatin as accelerators.
To a 0.01M solution of ethanol (10 μL) in 1M pH 9.25 phosphate buffer, in a multi-well plate, is added a solution of aloin, of the indicated concentration (10 μL) and 10 μL of a solution containing 0.2 U/mL ADH and diluted to 180 μL with buffer. To the mixture is added 20 μL of a 0.01M solution of NAD^+ in deionized distilled water, and the absorbance at 340 nm is followed with time.
The procedure in Example 51 is repeated using Daidezin.
The procedure in Example 51 is repeated using Methoxatin.

[3] = DNP test for acetaldehyde formation: ethanol oxidation with the enzyme solution omitted; settings: no additive, stood 15 minutes
Description: as §1, §2
The procedure in Example 1 was repeated with the omission of the enzyme solution.
The procedure in Example 3 was repeated with the omission of the enzyme solution.
The procedure in Example 4 was repeated with the omission of NAD^+.
The procedure in Example 2 is repeated using a pH 7.25 1M phosphate buffer.
The procedure in Example 4 is repeated using a pH 7.25 1M phosphate buffer.
The procedure in Example 5 is repeated using a pH 7.25 1M phosphate buffer.

T1 sequence (P00327 whole entry): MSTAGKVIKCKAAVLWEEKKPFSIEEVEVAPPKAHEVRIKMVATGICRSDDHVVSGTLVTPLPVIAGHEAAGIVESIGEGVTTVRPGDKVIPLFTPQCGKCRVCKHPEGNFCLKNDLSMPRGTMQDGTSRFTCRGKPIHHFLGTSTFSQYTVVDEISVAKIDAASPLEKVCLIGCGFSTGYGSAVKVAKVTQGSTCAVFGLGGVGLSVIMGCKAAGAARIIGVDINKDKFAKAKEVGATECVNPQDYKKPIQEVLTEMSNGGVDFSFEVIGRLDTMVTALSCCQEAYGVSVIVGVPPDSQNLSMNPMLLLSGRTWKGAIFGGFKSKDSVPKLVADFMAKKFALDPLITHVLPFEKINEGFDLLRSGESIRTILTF
Sequence of ADH (P00327 whole entry): as above

With `[Na+].[Na+].[O]=[Mo](=[O])([O-])[O-]` [Molybdate, sodium molybdate] the “Slope” value ([1]; pH 7.25) was “.00000012 mol/L/min”, the “Slope (OD/Min)” value ([1]; pH 7.25, absorption at 340 nm, * unexplained, text mentions an induction period) was “.0025* OD/Min” and the “Slope” value ([1]; pH 9.25) was “.0000003 mol/L/min”. The “Slope (OD/Min)” value ([1]; pH 9.25, absorption at 340 nm, * unexplained, text mentions an induction period) was “.0035* OD/Min”.
In the case of `O=S(=O)([O-])[O-].[O]=[V+2]` [vanadyl sulfate], the “DNP reaction (acetaldehyde formation)” value ([2]; pH 7.25) is reported as “positive”, the “DNP reaction (acetaldehyde formation)” value ([2]; pH 9.25) is reported as “positive” and the “Slope” value ([1]; pH 7.25) is reported as “.0000036 mol/L/min”. The “Slope (OD/Min)” value ([1]; pH 7.25) was “.0079 OD/Min”, the “Slope” value ([1]; pH 9.25) was “.000005 mol/L/min” and the “Slope (OD/Min)” value ([1]; pH 9.25) was “.0112 OD/Min”.
In the case of `O=c1c(-c2ccc(O)cc2)coc2cc(O)ccc12` [Daidezin], the “Relative rates of Ethanol Oxidation in presence of Additives (Control = 1)” value (“Relative rates of Ethanol Oxidation” for short) (ADH; additive .000005M) is reported as 1.28 and the “Relative rates of Ethanol Oxidation” value (ADH; additive .00001M) is reported as 1.38.
In the case of `O=C1c2c(O)cccc2C([C@@H]2O[C@H](CO)[C@@H](O)[C@H](O)[C@H]2O)c2cc(CO)cc(O)c21` (stereo partly shown) [Aloin], the “Relative rates of Ethanol Oxidation” value (ADH; additive .000005M) is reported as 1.07 and the “Relative rates of Ethanol Oxidation” value (ADH; additive .00001M) is reported as 1.19.
In the case of ammonium molybdate, the “DNP results of Examples 1-5 repeated with the additive in place of vanadyl sulfate” value ([2]; pH 9.25) is reported as “almost identical results”.
For `NC(=O)c1ccc[n+]([C@@H]2O[C@H](COP(=O)([O-])OP(=O)(O)OC[C@H]3O[C@@H](n4cnc5c(N)ncnc54)[C@H](O)[C@@H]3O)[C@@H](O)[C@H]2O)c1` [NAD^+, Nicotinamide Adenine Dinucleotide, reference compound], the “DNP reaction (acetaldehyde formation)” value ([3]; pH 7.25, ethanol + NAD+) was “negative” and the “DNP reaction (acetaldehyde formation)” value ([3]; pH 9.25, ethanol + NAD+) was “negative”.
With sodium phosphotungstate the “DNP results of Examples 25-30 repeated with the additive in place of vanadyl sulfate” value ([2]; pH 7.25) was “almost identical results”, the “DNP results of Examples 1-5 repeated with the additive in place of vanadyl sulfate” value ([2]; pH 9.25) was “almost identical results” and the “Slope” value ([1]; pH 7.25) was 0 mol/L/min. The “Slope (OD/Min)” value ([1]; pH 7.25) was 0 OD/Min, the “Slope” value ([1]; pH 9.25) was “.0000006 mol/L/min” and the “Slope (OD/Min)” value ([1]; pH 9.25) was “.007* OD/Min”.
With `O=C(O)c1cc(C(=O)O)c2c(n1)C(=O)C(=O)c1cc(C(=O)O)[nH]c1-2` [Methoxatin, 4,5-Dihydro-4,5-dioxo-1H-pyrrolo [2,3-f] quinoline-2,7,9-tricarboxylic acid] the “Relative rates of Ethanol Oxidation” value (ADH; additive .000005M) was 1.29 and the “Relative rates of Ethanol Oxidation” value (ADH; additive .00001M) was 1.59.

Reference: patent US7323452B2, “Method for the accelerated in vivo removal of ethanol” (Wardan, L.L.C., priority 2000, dated 2008)
